Reference: US6737383B1, “Herbicidal oxadiazolidines” (priority 1999, dated 2004)

How the values were obtained:
[1] = test system: sugar beet; assay: Test B pre/postemergence sugar beet; format: in vivo, Beta vulgaris; conditions: Preemergence; for Sugarbeets plant response rating: Rate 62 g/ha
Procedure, shortened: (§1)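 Test chemicals in a non-phytotoxic solvent mixture with surfactant were sprayed preemergence onto planted seeds and postemergence onto plants 2 to 18 cm tall (1- to 4-leaf stage). After twelve to sixteen days in a greenhouse, injury was visually rated against untreated controls from 0 (no effect) to 10 (complete control).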

[2] = test system: purple nutsedge; assay: Test B pre/postemergence purple nutsedge; format: in vivo, Cyperus rotundus; conditions: Preemergence; for Nutsedge plant response rating: Rate 62 g/ha
Procedure, shortened: as §1

[3] = test system: blackgrass; assay: Test B pre/postemergence blackgrass; format: in vivo, Alopecurus myosuroides; conditions: Preemergence; for Blackgrass plant response rating: Rate 62 g/ha
Procedure, shortened: as §1

[4] = test system: morningglory; assay: Test B pre/postemergence morningglory; format: in vivo, Ipomoea hederacea; conditions: Preemergence; for Morningglory plant response rating: Rate 62 g/ha
Procedure, shortened: as §1

[5] = test system: surinam grass; assay: Test B pre/postemergence surinam grass; format: in vivo, Brachiaria decumbens; conditions: Preemergence; for B. signalgrass plant response rating: Rate 62 g/ha
Procedure, shortened: as §1

[6] = test system: bedstraw; assay: Test B pre/postemergence bedstraw; format: in vivo, Galium aparine; conditions: Preemergence; for Bedstraw plant response rating: Rate 62 g/ha
Procedure, shortened: as §1

[7] = test system: soybean; assay: Test B pre/postemergence soybean; format: in vivo, Glycine max; conditions: Preemergence; for Soybean plant response rating: Rate 62 g/ha
Procedure, shortened: as §1

[8] = test system: corn; assay: Test B pre/postemergence corn; format: in vivo, Zea mays; conditions: Preemergence; for Corn plant response rating: Rate 62 g/ha
Procedure, shortened: as §1

[9] = test system: pigweed; assay: Test B pre/postemergence pigweed; format: in vivo, Amaranthus retroflexus; conditions: Preemergence; for Redroot pigweed plant response rating: Rate 62 g/ha
Procedure, shortened: as §1

[10] = test system: rape; assay: Test B pre/postemergence rape; format: in vivo, Brassica napus; conditions: Preemergence; for Rape plant response rating: Rate 62 g/ha
Procedure, shortened: as §1

[11] = test system: crabgrass; assay: Test B pre/postemergence crabgrass; format: in vivo, Digitaria sanguinalis; conditions: Preemergence; for Crabgrass plant response rating: Rate 62 g/ha
Procedure, shortened: as §1

[12] = test system: wheat; assay: Test B pre/postemergence wheat; format: in vivo, Triticum aestivum; conditions: Preemergence; for Wheat plant response rating: Rate 62 g/ha
Procedure, shortened: as §1

[13] = test system: cocklebur; assay: Test B pre/postemergence cocklebur; format: in vivo, Xanthium strumarium; conditions: Preemergence; for Cocklebur plant response rating: Rate 62 g/ha
Procedure, shortened: as §1

[14] = test system: velvetleaf; assay: Test B pre/postemergence velvetleaf; format: in vivo, Abutilon theophrasti; conditions: Preemergence; for Velvetleaf plant response rating: Rate 62 g/ha
Procedure, shortened: as §1

[15] = test system: wild oat; assay: Test B pre/postemergence wild oat; format: in vivo, Avena fatua; conditions: Preemergence; for Wild oats plant response rating: Rate 62 g/ha
Procedure, shortened: as §1

[16] = test system: giant foxtail; assay: Test B pre/postemergence giant foxtail; format: in vivo, Setaria faberii; conditions: Preemergence; for Giant foxtail plant response rating: Rate 62 g/ha
Procedure, shortened: as §1

[17] = scale of 0 to 10 where 0 is no effect and 10 is complete control
[18] = Rate 125 g/ha, scale of 0 to 10 where 0 is no effect and 10 is complete control
[19] = Rate 250 g/ha, scale 0 to 10 (0 no effect, 10 complete control)
[20] = Rate 500 g/ha, scale of 0 to 10 where 0 is no effect and 10 is complete control

CC(C)N(C(=O)n1oc(=O)n(CC(Cl)Cl)c1=O)c1ccc(F)cc1F [Compound 673]
3: Plant response rating, Sugarbeets [1, 19] | Plant response rating, Sugarbeets [1, 20] | Blackgrass plant response rating [3, 17] | Bedstraw plant response rating [6, 17] | Plant response rating, Velvetleaf [14, 18] | Plant response rating, Velvetleaf [14, 19]
2: Plant response rating, Nutsedge [2, 19] | Plant response rating, Morningglory [4, 20] | Plant response rating, Corn [8, 18] | Plant response rating, Rape [10, 18] | Plant response rating, Rape [10, 19] | Plant response rating, Rape [10, 20] | Plant response rating, Cocklebur [13, 20]
1: Rape plant response rating [10, 17]
9: Plant response rating, Blackgrass [3, 19] | Plant response rating, Blackgrass [3, 20] | Plant response rating, Wild oats [15, 19] | Giant foxtail plant response rating [16, 17]
10: Plant response rating, Redroot pigweed [9, 19] | Plant response rating, Redroot pigweed [9, 20] | Plant response rating, Crabgrass [11, 19] | Plant response rating, Crabgrass [11, 20] | Plant response rating, Giant foxtail [16, 18] | Plant response rating, Giant foxtail [16, 19] | Plant response rating, Giant foxtail [16, 20]
7: Plant response rating, B. signalgrass [5, 19] | Plant response rating, Redroot pigweed [9, 18]
5: Wild oats plant response rating [15, 17]
8: Plant response rating, Blackgrass [3, 18] | Plant response rating, B. signalgrass [5, 20] | Plant response rating, Crabgrass [11, 18] | Plant response rating, Velvetleaf [14, 20] | Plant response rating, Wild oats [15, 20]
4: B. signalgrass plant response rating [5, 17] | Plant response rating, Bedstraw [6, 19] | Plant response rating, Corn [8, 19] | Crabgrass plant response rating [11, 17]
6: Plant response rating, Nutsedge [2, 20] | Plant response rating, B. signalgrass [5, 18] | Plant response rating, Bedstraw [6, 20] | Plant response rating, Corn [8, 20] | Redroot pigweed plant response rating [9, 17]
0: Sugarbeets plant response rating [1, 17] | Plant response rating, Sugarbeets [1, 18] | Nutsedge plant response rating [2, 17] | Plant response rating, Nutsedge [2, 18] | Morningglory plant response rating [4, 17] | Plant response rating, Morningglory [4, 18] | Plant response rating, Morningglory [4, 19] | Soybean plant response rating [7, 17] | Plant response rating, Soybean [7, 18] | Plant response rating, Soybean [7, 19] | Plant response rating, Soybean [7, 20] | Corn plant response rating [8, 17] | Wheat plant response rating [12, 17] | Plant response rating, Wheat [12, 18] | Plant response rating, Wheat [12, 19] | Cocklebur plant response rating [13, 17] | Plant response rating, Cocklebur [13, 18] | Plant response rating, Cocklebur [13, 19] | Velvetleaf plant response rating [14, 17]

CCn1ncc(Cn2c(=O)on(C(=O)N(c3ccc(F)cc3)C(C)C)c2=O)c1Cl [Compound 685]
3: Plant response rating, Wild oats [15, 18]
7: Plant response rating, Blackgrass [3, 18] | Plant response rating, B. signalgrass [5, 18]
9: Plant response rating, B. signalgrass [5, 19] | Plant response rating, B. signalgrass [5, 20] | Crabgrass plant response rating [11, 17] | Plant response rating, Crabgrass [11, 18] | Plant response rating, Crabgrass [11, 19] | Giant foxtail plant response rating [16, 17] | Plant response rating, Giant foxtail [16, 18]
5: Blackgrass plant response rating [3, 17] | B. signalgrass plant response rating [5, 17]
4: Plant response rating, Redroot pigweed [9, 18]
0: Sugarbeets plant response rating [1, 17] | Plant response rating, Sugarbeets [1, 18] | Plant response rating, Nutsedge [2, 18] | Morningglory plant response rating [4, 17] | Plant response rating, Morningglory [4, 18] | Plant response rating, Bedstraw [6, 18] | Plant response rating, Bedstraw [6, 19] | Plant response rating, Bedstraw [6, 20] | Soybean plant response rating [7, 17] | Plant response rating, Soybean [7, 18] | Corn plant response rating [8, 17] | Plant response rating, Corn [8, 18] | Plant response rating, Corn [8, 19] | Redroot pigweed plant response rating [9, 17] | Rape plant response rating [10, 17] | Plant response rating, Rape [10, 18] | Wheat plant response rating [12, 17] | Plant response rating, Wheat [12, 18] | Cocklebur plant response rating [13, 17] | Plant response rating, Cocklebur [13, 18] | Plant response rating, Cocklebur [13, 19] | Velvetleaf plant response rating [14, 17] | Plant response rating, Velvetleaf [14, 18] | Wild oats plant response rating [15, 17]
10: Plant response rating, Blackgrass [3, 19] | Plant response rating, Blackgrass [3, 20]

CC(C)N(C(=O)n1oc(=O)n(CCC(=O)N(C)C)c1=O)c1ccc(F)cc1F [Compound 687]
6: B. signalgrass plant response rating [5, 17] | Plant response rating, Wheat [12, 18] | Giant foxtail plant response rating [16, 17] | Plant response rating, Giant foxtail [16, 18]
2: Morningglory plant response rating [4, 17] | Velvetleaf plant response rating [14, 17]
10: Plant response rating, Blackgrass [3, 20] | Plant response rating, B. signalgrass [5, 19] | Plant response rating, B. signalgrass [5, 20]
9: Plant response rating, Blackgrass [3, 18] | Plant response rating, Blackgrass [3, 19] | Plant response rating, B. signalgrass [5, 18] | Plant response rating, Redroot pigweed [9, 18] | Plant response rating, Wild oats [15, 18]
7: Wild oats plant response rating [15, 17]
0: Plant response rating, Nutsedge [2, 18] | Bedstraw plant response rating [6, 17] | Plant response rating, Bedstraw [6, 18] | Plant response rating, Bedstraw [6, 20] | Soybean plant response rating [7, 17] | Plant response rating, Soybean [7, 18] | Corn plant response rating [8, 17] | Plant response rating, Corn [8, 18] | Plant response rating, Corn [8, 19] | Rape plant response rating [10, 17] | Wheat plant response rating [12, 17] | Cocklebur plant response rating [13, 17] | Plant response rating, Cocklebur [13, 18] | Plant response rating, Cocklebur [13, 19] | Plant response rating, Cocklebur [13, 20]
8: Blackgrass plant response rating [3, 17] | Redroot pigweed plant response rating [9, 17]
4: Sugarbeets plant response rating [1, 17] | Crabgrass plant response rating [11, 17] | Plant response rating, Crabgrass [11, 19]
3: Plant response rating, Morningglory [4, 18]
5: Plant response rating, Sugarbeets [1, 18] | Plant response rating, Rape [10, 18] | Plant response rating, Velvetleaf [14, 18]

CC(C)N(C(=O)n1oc(=O)n(C(C)C)c1=O)c1ccc(Br)cc1 [Compound 691]
9: Plant response rating, Blackgrass [3, 18] | Plant response rating, B. signalgrass [5, 19] | Plant response rating, Bedstraw [6, 18] | Plant response rating, Bedstraw [6, 19] | Crabgrass plant response rating [11, 17] | Plant response rating, Crabgrass [11, 18] | Giant foxtail plant response rating [16, 17]
4: Blackgrass plant response rating [3, 17]
3: Plant response rating, Redroot pigweed [9, 18] | Plant response rating, Rape [10, 18]
0: Sugarbeets plant response rating [1, 17] | Nutsedge plant response rating [2, 17] | Morningglory plant response rating [4, 17] | Plant response rating, Morningglory [4, 18] | B. signalgrass plant response rating [5, 17] | Bedstraw plant response rating [6, 17] | Corn plant response rating [8, 17] | Plant response rating, Corn [8, 18] | Plant response rating, Corn [8, 19] | Rape plant response rating [10, 17] | Wheat plant response rating [12, 17] | Plant response rating, Wheat [12, 18] | Cocklebur plant response rating [13, 17] | Plant response rating, Cocklebur [13, 19] | Plant response rating, Cocklebur [13, 20] | Velvetleaf plant response rating [14, 17] | Plant response rating, Velvetleaf [14, 18]
2: Plant response rating, Sugarbeets [1, 18] | Soybean plant response rating [7, 17] | Plant response rating, Soybean [7, 18] | Redroot pigweed plant response rating [9, 17] | Wild oats plant response rating [15, 17]
8: Plant response rating, B. signalgrass [5, 18]
10: Plant response rating, Blackgrass [3, 19] | Plant response rating, Blackgrass [3, 20] | Plant response rating, B. signalgrass [5, 20] | Plant response rating, Crabgrass [11, 19] | Plant response rating, Giant foxtail [16, 18]
6: Plant response rating, Wild oats [15, 18]
